target: EBNA1 DNA binding domain (Human herpesvirus 4, UniProt P03211 SEQ:454-607); assay: FP; 200 mM NaCl, 20 mM Tris-Cl pH 7.4, 1 mM DTT, 10 ug/mL BSA, 25 C; 5 nM probe; probe performed significantly better in FP than in EMSA comparison; conditions: tags: hexa-histidine, E. coli expressed; chain copies: 2; label: CY5 (opl 3016) or FITC (opl 4624); hairpin
Sequence (P03211 454-607): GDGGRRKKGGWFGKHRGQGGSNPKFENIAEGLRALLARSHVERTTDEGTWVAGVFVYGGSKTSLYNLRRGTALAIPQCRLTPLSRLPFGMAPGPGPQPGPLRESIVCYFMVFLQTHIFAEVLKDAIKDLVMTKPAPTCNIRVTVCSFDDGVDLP

Row | Molecule | binding result
1 | GGGTAGCATATGCTATCTAGATAGCATATGCTACCC (structured_DNA) [EBNA1 BS Hairpin (opl 3016 / opl 4624)] | binds

target: T1, EBNA1 (Epstein-Barr virus, UniProt P03211); assay: cell-based assay (EBNA1 transcription derepression assay, Qp-luciferase reporter in 293T cells); conditions: final concentration range 125 μM-2 nM, 125000 nM = not active
T1 construct: expressed in transfected cells; host or cells: 293T cells
Protocol: EBNA1 Transcription Derepression Assay.
293T cells were seeded in 10-cm plates in DMEM media with 10% FBS. Following a 18-hour incubation at 37° C. to allow cells to adhere, cells at 50-70% confluence were transfected using 40 μL LIPOFECTAMINE (INVITROGEN) per plate. The cells were transfected with a 4 μg Qp-luciferase reporter plasmid (N1852) and 0.125 μg EBNA1 expression plasmid (N803) or 4 μg Qp-luciferase reporter plasmid (N1852) and 0.125 μg control plasmid (N799) (no EBNA) per plate. After 24 hours, the cells were harvested without trypsin, centrifuged 1200 RPM for 5 minutes and resuspended in DMEM media with 10% FBS at a concentration 100,000 cells per milliliter. Forty μL of this solution […] was dispensed to each well of the white plate using a BIOTEK MICROFLO Select Dispenser. Test compounds were added to achieve a final concentration range of 125 μM-2 nM, as described above. Cells were incubated at 37° C. for 48 hours, harvested and analyzed for luciferase activity using the PROMEGA STEADY-GLO luciferase system and read using a PERKIN ELMER 2104 Multilabel Reader.
Compounds were screened for activity in the cell-based assay disclosed herein.

T1 sequence (P03211 whole entry): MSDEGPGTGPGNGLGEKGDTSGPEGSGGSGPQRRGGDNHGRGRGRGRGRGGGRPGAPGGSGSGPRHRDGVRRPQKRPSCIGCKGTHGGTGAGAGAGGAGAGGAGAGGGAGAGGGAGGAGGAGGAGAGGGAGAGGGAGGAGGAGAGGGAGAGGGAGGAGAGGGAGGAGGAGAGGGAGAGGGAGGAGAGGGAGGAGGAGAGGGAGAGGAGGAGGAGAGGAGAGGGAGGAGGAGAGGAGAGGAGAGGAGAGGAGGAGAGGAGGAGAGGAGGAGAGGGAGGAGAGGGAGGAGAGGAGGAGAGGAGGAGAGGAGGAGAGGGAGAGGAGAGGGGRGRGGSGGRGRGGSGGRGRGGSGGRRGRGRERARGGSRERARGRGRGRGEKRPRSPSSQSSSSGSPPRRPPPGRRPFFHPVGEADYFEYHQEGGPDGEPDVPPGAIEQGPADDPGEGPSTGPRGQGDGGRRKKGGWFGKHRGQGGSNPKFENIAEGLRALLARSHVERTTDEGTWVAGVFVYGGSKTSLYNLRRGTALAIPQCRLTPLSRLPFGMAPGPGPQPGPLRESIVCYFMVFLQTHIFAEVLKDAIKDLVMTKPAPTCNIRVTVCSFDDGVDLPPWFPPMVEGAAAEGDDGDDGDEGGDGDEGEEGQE

Row | Molecule | IC50 [nM]
2 | O=C(Oc1ccc(Cl)cc1)c1ccc2occc2c1 [VKE01441] | 9060
3 | CC(C)(C)c1ccc(OC(=O)c2ccc3occc3c2)cc1 [VKE01442] | 2630
4 | O=C(Cc1ccc(Cl)cc1Cl)Oc1ccc2occ([N+](=O)[O-])c2c1 [VKE01443] | > 125000
5 | O=C(Oc1ccc2occ([N+](=O)[O-])c2c1)c1cccnc1 [VKE01444] | > 125000
6 | O=C(Oc1ccc2occ([N+](=O)[O-])c2c1)c1ccncn1 [VKE01445] | > 125000
7 | O=C(Oc1ccc2occ([N+](=O)[O-])c2c1)c1ncccc1C(F)(F)F [VKE01446] | > 125000
8 | O=C(Oc1ccc2occ([N+](=O)[O-])c2c1)c1ccno1 [VKE01447] | > 125000
9 | O=C(Oc1ccc2occ([N+](=O)[O-])c2c1)c1ccc(N2CCOCC2)cc1 [VKE01448] | 30600
10 | O=C(Oc1ccc2occ([N+](=O)[O-])c2c1)c1ccccc1C(F)(F)F [VKE01449] | > 125000
11 | CCc1ccccc1C(=O)Oc1ccc2occ([N+](=O)[O-])c2c1 [VKE01450] | 9020
12 | O=C(Oc1ccc2occ([N+](=O)[O-])c2c1)c1ccc(F)cc1Cl [VKE01451] | 3280
13 | Cc1cc(C)cc(CC(=O)Oc2ccc3occ([N+](=O)[O-])c3c2)c1 [VKE01452] | > 125000
14 | CCCCc1ccc(C(=O)Oc2ccc3occ([N+](=O)[O-])c3c2)cc1 [VKE01453] | 1240
15 | O=[N+]([O-])c1coc2ccc(OCc3ccc(Cl)cc3)cc12 [VKE01454] | 9780
16 | O=[N+]([O-])c1coc2ccc(OCc3ccccc3)cc12 [VKE01455] | 27200
17 | O=[N+]([O-])c1coc2ccc(OCc3ccc(OC(F)(F)F)cc3)cc12 [VKE01456] | 14000
18 | O=C(Nc1ccc2occc2c1)c1ccc(F)cc1Cl [VKE01457] | 18.9

Row | Molecule | IC50 [nM]
19 | O=C(Nc1ccc2occc2c1)c1ccc(C(F)(F)F)cc1 [VKE01458] | 4.76
20 | O=C(Nc1ccc2occc2c1)c1ccccc1C(F)(F)F [VKE01459] | 6520
21 | CCCCc1ccc(C(=O)Nc2ccc3occc3c2)cc1 [VKE01460] | 12.3
22 | CCc1ccccc1C(=O)Nc1ccc2occc2c1 [VKE01461] | 1020
23 | O=C(Nc1ccc2occc2c1)c1ccc(N2CCOCC2)cc1 [VKE01462] | 298
24 | O=C(Nc1ccc2occc2c1)c1cccnc1 [VKE01463] | 1260
25 | O=C(Nc1ccc2occc2c1)c1ncccc1C(F)(F)F [VKE01464] | 1090
26 | O=C(Nc1ccc2occc2c1)c1ccncn1 [VKE01465] | 1660
27 | O=C(Nc1ccc2occc2c1)c1ccno1 [VKE01466] | 83800
28 | O=C(Nc1ccccc1F)c1ccc2occc2c1 [VKE01467] | 674
29 | O=C(Nc1cccc(Cl)c1)c1ccc2occc2c1 [VKE01468] | 813
30 | CC(C)(C)c1ccc(NC(=O)c2ccc3occc3c2)cc1 [VKE01469] | 62.7
31 | Cc1cc(NC(=O)c2ccc3occc3c2)ccc1Cl [VKE01470] | 42
32 | O=C(Nc1ccc(F)c(F)c1)c1ccc2occc2c1 [VKE01471] | 847
33 | O=C(Nc1ccccn1)c1ccc2occc2c1 [VKE01472] | 152
34 | O=C(Nc1ccncc1)c1ccc2occc2c1 [VKE01473] | 20800
35 | Cc1csc(NC(=O)c2ccc3occc3c2)n1 [VKE01474] | 60.2

Reference: patent publication US9309212B2, “Compositions and methods for modulating the activity of Epstein-Barr nuclear antigen 1” (The Wistar Institute, priority 2011, dated 2016)
